Laboratory results from US8058243B2, “Method for treating a brain cancer with ifenprodil” (HSC Research and Development Limited Partnership, priority 2006, dated 2011).
Where a name gives a salt, the structure may show the parent alone. Read-outs that look alike come from different tables or passages of the source.

Test system: murine neural precursor cells (neurosphere cultures)
Assay: HTS of LOPAC library against secondary neurosphere cultures, MTT proliferation assay at 3 μM, day 7 (z score, P value)
Assay type: cell-based, mouse
[1] = LOPAC primary screen, neurosphere MTT proliferation, 3 μM, day 7
[2] = yes/no: significantly inhibited neurosphere proliferation (P<0.01) in primary screen
[3] = LOPAC library screen, 3 μM, MTT, neurosphere cultures
[4] = LOPAC screen, neurosphere MTT proliferation, 3 μM, day 7
[5] = yes/no: significantly inhibited neurosphere proliferation (P<0.01) in the primary screen
[6] = LOPAC library screen, 3 μM, MTT, secondary neurosphere cultures, day 7
[7] = yes/no: significantly inhibited neurosphere proliferation in primary screen
[8] = yes/no: significantly inhibited neurosphere proliferation in the primary screen
[9] = primary LOPAC screen, 3 μM, MTT, neurosphere proliferation
[10] = LOPAC library screen at 3 μM, MTT, secondary neurosphere cultures, screened in singlets
[11] = LOPAC library screen at 3 μM, secondary neurosphere cultures, MTT

Molecule: CC(Cc1ccc(O)cc1)NCC(O)c1cc(O)cc(O)c1 (stereo not shown) [Fenoterol hydrobromide]
- Z Score: −1.841
- Z score [1]: −1.841
- Activity [2]: no

Molecule: CC(C)C[C@H](NC(=O)[C@@H](O)[C@H](N)Cc1ccccc1)C(=O)O [Bestatin hydrochloride]
- Z Score [3]: 0.6432
- Z score [4]: 0.643
- Activity [2]: no

Molecule: CC[N+](C)(C)Cc1ccccc1Br [Bretylium tosylate]
- Activity: no
- Z Score [3]: −0.001709
- Z score [4]: −0.002

Molecule: CCCN(CCC)C1Cc2cc(OC)c(OC)cc2C1.O=C(O)/C=C\C(=O)O [U-99194A maleate]
- Z Score: 1.255

Molecule: CCc1cc(Cl)c(OC)c(C(=O)NC[C@@H]2CCCN2CC)c1O.Cl [S-(−)-Eticlopride hydrohloride]
- Z score [1]: −5.158
- Activity [5]: yes

Molecule: N[C@@H]1C[C@H]1c1ccccc1 [Tranylcypromine hydrochloride]
- Z Score [6]: −1.441
- Z score [1]: −1.441
- Activity [7]: no

Molecule: C[C@@H]1O[C@@H]1P(=O)([O-])[O-].[Na+].[Na+] [Phosphomycin disodium]
- Z Score [6]: −1.402
- Z score [1]: −1.402
- Activity (yes = significantly inhibited neurosphere proliferation (P<0.01) in the primary screen): no

Molecule: NC(=O)c1ccccc1 [Benzamide]
- Z score (168 h, 3 µM): 0.550
- Activity [8]: no

Molecule: CC1=C[C@@H]2c3cccc4[nH]cc(c34)C[C@H]2N(C)C1 [Agroclavine]
- Z Score: −0.9109
- Z score [9]: −0.911
- Activity [8]: no

Molecule: NC(CCCCCP(=O)(O)O)C(=O)O (racemic) [(±)-2-Amino-7-phospheneheptanoic acid]
- Z score [9]: −1.020
- Activity [8]: no

Molecule: CN(C)CCOC(C)(c1ccccc1)c1ccccn1 (stereo not shown) [Doxylamine succinate]
- Z Score [10]: 1.736
- Z score [4]: 1.736
- Activity [2]: no

Molecule: O=C(N[C@@H](Cc1ccccc1)C(=O)CCl)OCc1ccccc1 [Z-L-Phe chloromethyl ketone]
- Z Score: −2.901
- Z score [1]: −2.901
- Activity [5]: yes

Molecule: C[N+](C)(C)CC#CCN1CCCC1=O [Oxotremorine methiodide]
- Z Score: −0.7002
- Z score [1]: −0.700
- Activity [7]: no

Molecule: CC(=O)OCC(=O)[C@@]1(O)CC[C@H]2[C@@H]3CCC4=CC(=O)CC[C@]4(C)[C@H]3C(=O)C[C@@]21C [Cortisone 21-acetate]
- Z Score [6]: −2.218
- Z score [4]: −2.218
- Activity [2]: no

Molecule: CCCCCCCCCCCCCCCCCC(=O)NCC(COP(=O)([O-])OCC[N+](C)(C)C)OCC (racemic) [rac-2-Ethoxy-3-octadecanamido-1-propylphosphocholine]
- Z Score [11]: −1.112
- Z score [1]: −1.112
- Activity [2]: no

Molecule: Vinblastine sulfate salt
- Z Score: −9.396
- Z score [1]: −9.396
- Activity [5]: yes

Molecule: CN(C)C(N)=NCCC[C@H](N)C(=O)O.Cl
- Z Score: −1.373

Molecule: CNCC[C@H](Oc1ccc(C(F)(F)F)cc1)c1ccccc1.Cl [S-(+)-Fluoxetine hydrochloride]
- Z Score [11]: −0.8088
- Z score [1]: −0.809
- Activity [2]: no

Molecule: O=C(/C=C/c1ccc(O)c(O)c1)OCCc1ccccc1 [Caffeic acid phenethyl ester]
- Z Score (168 h, 3 µM): 1.306
- Z score (168 h, 3 µM): 1.306
- Activity [2]: no

Molecule: CN1C2CCC1CC(OC(=O)c1cc(Cl)cc(Cl)c1)C2 (stereo not shown) [ML-9]
- Z Score: −9.322
- Z score [1]: −9.322

Molecule: O=c1n(CCCN2CCN(c3cccc(Cl)c3)CC2)nc2ccccn12 [Trazodone hydrochloride]
- Z Score (168 h, 3 µM): −2.644
- Z score (168 h, 3 µM): −2.644
- Activity [5]: yes

Molecule: CCN(CC)C(=O)N[C@H]1C[C@@H]2c3cccc4[nH]cc(c34)C[C@H]2N(C)C1 [R(+)-Terguride]
- Z Score [6]: −2.004
- Z score [9]: −2.004
- Activity [8]: no

Molecule: OCCN(CCO)c1nc(N2CCCCC2)c2nc(N(CCO)CCO)nc(N3CCCCC3)c2n1 [Dipyridamole]
- Activity: no
- Z Score [11]: −0.7267
- Z score [4]: −0.727

Molecule: Cn1c(=O)[nH]c2ncn(C)c2c1=O [1,7-Dimethylxanthine]
- Z Score (168 h, 3 µM): −0.6623
- Z score (168 h, 3 µM): −0.662
- Activity [2]: no

Molecule: Cl.NCCCCNS(=O)(=O)c1ccc2c(Cl)cccc2c1 [N-(4-Aminobutyl)-5-chloro-2-naphthalenesulfonamide hydrochloride]
- Z Score (168 h, 3 µM): −0.9229

Molecule: CC1=C(C)C(=O)C(CCCCC#CCCCC#CCO)=C(C)C1=O [AA-861]
- Z Score [10]: 1.517
- Z score [9]: 1.517

Molecule: CCOC(=O)C1=C[C@]2(CC)CCCN3CCc4c(n1c1ccccc41)[C@@H]32 [Vinpocetine]
- Z Score [3]: 0.4329
- Z score [9]: 0.433
- Activity [8]: no

Molecule: COc1cc2nc(N3CCN(C(=O)C4COc5ccccc5O4)CC3)nc(N)c2cc1OC (stereo not shown) [Doxazosin mesylate]
- Z Score [6]: −1.861
- Z score [4]: −1.861
- Activity [2]: no
